Laboratory results published in ChEMBL document CHEMBL1144970, “Protective effects of steroid saponins from Paris polyphylla var. yunnanensis on ethanol- or indomethacin-induced gastric mucosal lesions in rats: structural requirement for activity and mode of action” (Bioorg Med Chem Lett, 2003).

Tests used:
Rattus norvegicus [1] = test: Percent inhibition of gastric lesions induced by endomethacin was measured, after administration of 10 mg/kg po in rats; assay type: functional; details: Stomach
Rattus norvegicus [2] = test: Reduction in length (control value = 138+/-12.1) of gastric lesions induced by ethanol was measured, after administration of 10 mg/kg po in rats; assay type: functional, Stomach
Rattus norvegicus [3] = test: Reduction in length (control value = 62.8+/-12.4) of gastric lesions induced by endomethacin was measured, after administration of 10 mg/kg po in rats; assay type: functional, Stomach
Rattus norvegicus [4] = test: Percent inhibition of gastric lesions induced by ethanol was measured, after administration of 10 mg/kg po in rats; assay type: functional; details: Stomach
Rattus norvegicus [5] = test: Volume of the gastric juice (Control value = 4.9+/-0.3) of stomach content of pylorus ligated rats was measured (5 mg/kg po of the Compound was administered 1 hr before the pylorus ligation); assay type: functional
Rattus norvegicus [6] = test: Percent inhibition of gastric lesions induced by endomethacin was measured, after administration of 5 mg/kg po in rats; assay type: functional; details: Stomach
Rattus norvegicus [7] = test: Reduction in length (control value = 188.7+/-10.5) of gastric lesions induced by ethanol was measured, after administration of 5 mg/kg po in L-NAME-pretreated rats; assay type: functional, Stomach
Rattus norvegicus [8] = test: Percent inhibition of gastric lesions (length = 102.2+/-8.1) induced by ethanol was measured, after administration of 5 mg/kg po in endomethacin pretreated rats; assay type: functional; details: Stomach
Rattus norvegicus [9] = test: Percent inhibition of gastric lesions (length = 92.3+/-9) induced by ethanol was measured, after administration of 5 mg/kg po in NEM-pretreated rats; assay type: functional; details: Stomach
Rattus norvegicus [10] = test: Percent inhibition of gastric lesions (length = 31.4+/-3.8) induced by ethanol was measured, after administration of 10 mg/kg po in L-NAME-pretreated rats; assay type: functional; details: Stomach
Rattus norvegicus [11] = test: Reduction in length (control value = 126.1+/-5.7) of gastric lesions induced by ethanol was measured, after administration of 10 mg/kg po in rats; assay type: functional, Stomach
Rattus norvegicus [12] = test: Percent inhibition of gastric lesions (length = 35.7+/-2.3) induced by ethanol was measured, after administration of 5 mg/kg po in rats; assay type: functional; details: Stomach
Rattus norvegicus [13] = test: Reduction in length (control value = 124.3+/-7.8) of gastric lesions induced by ethanol was measured, after administration of 10 mg/kg po in indomethacin-pretreated rats; assay type: functional, Stomach
Rattus norvegicus [14] = test: Reduction in length (control value = 70.8+/-5.3) of gastric lesions induced by endomethacin was measured, after administration of 10 mg/kg po in rats; assay type: functional, Stomach
Rattus norvegicus [15] = test: Reduction in length (control value = 169.6+/-1.9) of gastric lesions induced by ethanol was measured, after administration of 5 mg/kg po in NEM-pretreated rats; assay type: functional, Stomach
Rattus norvegicus [16] = test: Reduction in length (control value = 124.3+/-7.8) of gastric lesions induced by ethanol was measured, after administration of 5 mg/kg po in indomethacin-pretreated rats; assay type: functional, Stomach
Rattus norvegicus [17] = test: Acid output from the stomach (control value = 119.7+/-11.7) in pylorus ligated rats (5 mg/kg po of the Compound was administered 1 hr before the pylorus ligation); assay type: functional
Rattus norvegicus [18] = test: Volume of the gastric juice (Control value = 4.9+/-0.3) of stomach content of pylorus ligated rats was measured (10 mg/kg po of the Compound was administered 1 hr before the pylorus ligation); assay type: functional
Rattus norvegicus [19] = test: Percent inhibition of gastric lesions (length = 60.8+/-11.6) induced by ethanol was measured, after administration of 5 mg/kg po in L-NAME-pretreated rats; assay type: functional; details: Stomach
Rattus norvegicus [20] = test: Reduction in length (control value = 126.1+/-5.7) of gastric lesions induced by ethanol was measured, after administration of 2.5 mg/kg po in rats; assay type: functional, Stomach
Rattus norvegicus [21] = test: Percent inhibition of gastric lesions induced by endomethacin was measured, after administration of 2.5 mg/kg po in rats; assay type: functional; details: Stomach
Rattus norvegicus [22] = test: Acid output from the stomach (control value = 119.7+/-11.7) in pylorus ligated rats (10 mg/kg po of the Compound was administered 1 hr before the pylorus ligation); assay type: functional
Rattus norvegicus [23] = test: Percent inhibition of gastric lesions (length = 15.3+/-2.9) induced by ethanol was measured, after administration of 10 mg/kg po in rats; assay type: functional; details: Stomach
Rattus norvegicus [24] = test: Reduction in length (control value = 70.8+/-5.3) of gastric lesions induced by endomethacin was measured, after administration of 5 mg/kg po in rats; assay type: functional, Stomach
Rattus norvegicus [25] = test: Percent inhibition of gastric lesions induced by ethanol was measured, after administration of 5 mg/kg po in rats; assay type: functional; details: Stomach
Rattus norvegicus [26] = test: Reduction in length (control value = 169.6+/-1.9) of gastric lesions induced by ethanol was measured, after administration of 10 mg/kg po in NEM-pretreated rats; assay type: functional, Stomach
Rattus norvegicus [27] = test: Reduction in length (control value = 206.7+/-6.3) of gastric lesions induced by endomethacin was measured, after administration of 5 mg/kg po NEM-pretreated in rats; assay type: functional, Stomach
Rattus norvegicus [28] = test: Percent inhibition of gastric lesions (length = 96.1+/-13.7) induced by ethanol was measured, after administration of 10 mg/kg po in endomethacin pretreated rats; assay type: functional; details: Stomach
Rattus norvegicus [29] = test: Reduction in length (control value = 70.8+/-5.3) of gastric lesions induced by endomethacin was measured, after administration of 2.5 mg/kg po in rats; assay type: functional, Stomach
Rattus norvegicus [30] = test: pH of the gastric juice (Control value = 1.44+/-0.01) of stomach content of pylorus ligated rats was measured (10 mg/kg po of the Compound was administered 1 hr before the pylorus ligation); assay type: ADME, organism-based; details: in vivo
Rattus norvegicus [31] = test: Percent inhibition of gastric lesions induced by ethanol was measured, after administration of 2.5 mg/kg po in rats; assay type: functional; details: Stomach
Rattus norvegicus [32] = test: Reduction in length (control value = 126.1+/-5.7) of gastric lesions induced by ethanol was measured, after administration of 5 mg/kg po in rats; assay type: functional, Stomach
Rattus norvegicus [33] = test: Percent inhibition of gastric lesions (length = 61.5+/-4.4) induced by ethanol was measured, after administration of 10 mg/kg po in NEM-pretreated rats; assay type: functional; details: Stomach
Rattus norvegicus [34] = test: pH of the gastric juice (Control value = 1.44+/-0.01) of stomach content of pylorus ligated rats was measured ( 5 mg/kg po of the Compound was administered 1 hr before the pylorus ligation); assay type: ADME, organism-based; parameters: dose 5 mg/kg, route oral; details: in vivo
Rattus norvegicus [35] = test: Reduction in length (control value = 107+/-14.5) of gastric lesions induced by ethanol was measured, after administration of 2.5 mg/kg po in rats; assay type: functional, Stomach
Rattus norvegicus [36] = test: Reduction in length (control value = 54.6+/-16.5) of gastric lesions induced by endomethacin was measured, after administration of 10 mg/kg po in rats; assay type: functional, Stomach
Rattus norvegicus [37] = test: Reduction in length ((control value = 126+/-9.1) of gastric lesions induced by ethanol was measured, after administration of 2.5 mg/kg po in rats; assay type: functional, Stomach
Rattus norvegicus [38] = test: Reduction in length (control value = 126+/-9.1) of gastric lesions induced by ethanol was measured, after administration of 5 mg/kg po in rats; assay type: functional, Stomach
Rattus norvegicus [39] = test: Reduction in length (control value = 88.9+/-5.5) of gastric lesions induced by endomethacin was measured, after administration of 5 mg/kg po in rats; assay type: functional, Stomach
Rattus norvegicus [40] = test: Reduction in length ((control value = 126+/-9.1)of gastric lesions induced by ethanol was measured, after administration of 2.5 mg/kg po in rats; assay type: functional, Stomach

Compound: CC1CC[C@@]2(OC1)OC1CC3C4CC=C5C[C@@H](O)CC[C@]5(C)C4CC[C@]3(C)[C@@]1(O)[C@@H]2C (some centres not stated)
- inhibition in vivo at 10 mg/kg (Rattus norvegicus [1]): 6.8%
- Length (Rattus norvegicus [2]): 134 mm
- Length (Rattus norvegicus [3]): 67.1 mm
- inhibition in vivo at 10 mg/kg (Rattus norvegicus [4]): 2.5%

Compound: C[C@@H]1CC[C@@]2(OC1)OC1C[C@H]3[C@@H]4CC=C5C[C@@H](O[C@@H]6O[C@H](CO)[C@@H](O[C@@H]7O[C@@H](CO)[C@H](O)[C@H]7O)[C@H](O)[C@H]6O[C@@H]6O[C@@H](C)[C@H](O)[C@@H](O)[C@H]6O)CC[C@]5(C)[C@H]4CC[C@]3(C)C1[C@@H]2C (some centres not stated)
- inhibition in vivo at 10 mg/kg (Rattus norvegicus [1]): 84.6%
- Volume (Rattus norvegicus [5]): 4.4 ml 4hr-1
- inhibition in vivo at 5 mg/kg (Rattus norvegicus [6]): 67.2%
- Length (Rattus norvegicus [7]): 60.8 mm
- inhibition in vivo at 5 mg/kg (Rattus norvegicus [8]): 17.8%
- inhibition in vivo at 5 mg/kg (Rattus norvegicus [9]): 45.6%
- inhibition in vivo at 10 mg/kg (Rattus norvegicus [10]): 83.4%
- Length (Rattus norvegicus [11]): 11.4 mm
- inhibition in vivo at 5 mg/kg (Rattus norvegicus [12]): 69.3%
- Length (Rattus norvegicus [13]): 96.1 mm
- Length (Rattus norvegicus [14]): 10.9 mm
- Length (Rattus norvegicus [15]): 92.3 mm
- Length (Rattus norvegicus [16]): 102 mm
- Acid output (Rattus norvegicus [17]): 100.5 u equiv hr-1
- Volume (Rattus norvegicus [18]): 3.6 ml 4hr-1
- inhibition in vivo at 5 mg/kg (Rattus norvegicus [19]): 67.8%
- Length (Rattus norvegicus [20]): 76.1 mm
- inhibition in vivo at 2.5 mg/kg (Rattus norvegicus [21]): 60.6%
- Acid output (Rattus norvegicus [22]): 82.1 u equiv hr-1
- inhibition in vivo at 10 mg/kg (Rattus norvegicus [23]): 86.9%
- Length (Rattus norvegicus [24]): 23.2 mm
- inhibition in vivo at 5 mg/kg (Rattus norvegicus [25]): 63.1%
- Length (Rattus norvegicus [26]): 31.4 mm
- Length (Rattus norvegicus [27]): 61.5 mm
- inhibition in vivo at 10 mg/kg (Rattus norvegicus [28]): 22.7%
- Length (Rattus norvegicus [29]): 27.9 mm
- inhibition in vivo at 10 mg/kg (Rattus norvegicus [4]): 91%
- pH (Rattus norvegicus [30]): 1.48
- inhibition in vivo at 2.5 mg/kg (Rattus norvegicus [31]): 39.7%
- Length (Rattus norvegicus [32]): 46.5 mm
- inhibition in vivo at 10 mg/kg (Rattus norvegicus [33]): 63.7%
- pH (Rattus norvegicus [34]): 1.47

Compound: C[C@@H]1CC[C@@]2(OC1)O[C@H]1C[C@H]3[C@@H]4CC=C5C[C@@H](O)CC[C@]5(C)[C@H]4CC[C@]3(C)[C@H]1[C@@H]2C [DISOGENIN]
- inhibition in vivo at 10 mg/kg (Rattus norvegicus [1]): 8.6%
- inhibition in vivo at 10 mg/kg (Rattus norvegicus [4]): 28.1%
- Length (Rattus norvegicus [35]): 76.9 mm
- Length (Rattus norvegicus [36]): 49.9 mm

Compound: C[C@H](CCC1(O)OC2CC3C4CC=C5C[C@@H](O[C@@H]6O[C@H](CO)C(O[C@@H]7O[C@@H](CO)[C@H](O)[C@H]7O)[C@@H](O)[C@H]6O[C@@H]6O[C@@H](C)[C@H](O)[C@@H](O)[C@H]6O)CC[C@]5(C)C4CC[C@]3(C)C2[C@@H]1C)CO[C@@H]1O[C@H](CO)[C@@H](O)[C@H](O)[C@H]1O (some centres not stated) [PARISAPONIN I]
- Length (Rattus norvegicus [37]): 114 mm
- inhibition in vivo at 5 mg/kg (Rattus norvegicus [6]): 7.2%
- Length (Rattus norvegicus [38]): 106 mm
- inhibition in vivo at 5 mg/kg (Rattus norvegicus [25]): 15.6%
- inhibition in vivo at 2.5 mg/kg (Rattus norvegicus [31]): 9.2%
- Length (Rattus norvegicus [39]): 82.5 mm

Compound: C[C@H](CCC1(O)OC2CC3C4CC=C5C[C@@H](O[C@@H]6O[C@H](CO)[C@@H](O)[C@H](O)[C@H]6O[C@@H]6O[C@@H](C)[C@H](O)[C@@H](O)[C@H]6O)CC[C@]5(C)C4CC[C@]3(C)C2[C@@H]1C)CO[C@@H]1O[C@H](CO)[C@@H](O)[C@H](O)[C@H]1O (some centres not stated) [TRIGOFOENOSIDE A]
- inhibition in vivo at 5 mg/kg (Rattus norvegicus [6]): 16%
- Length (Rattus norvegicus [38]): 111 mm
- inhibition in vivo at 5 mg/kg (Rattus norvegicus [25]): 11.7%
- Length (Rattus norvegicus [40]): 93 mm
- inhibition in vivo at 2.5 mg/kg (Rattus norvegicus [31]): 26.2%
- Length (Rattus norvegicus [39]): 74.7 mm
